Measurements from patent publication US12630536B2, “Cyanotriazine derivative, preparation method therefor, and application thereof” (Chengdu Fanxi Biopharma Co., LTD., priority 2020, dated 2026).

How the values were obtained:
[1] = tested on: TR beta-UAS-bla HEK 293T Cells; experiment: TR cell-based agonist detection, β-lactamase reporter (LiveBLAzer FRET B/G), TR beta
Experimental: (§1) A method for testing a THR-α/β activation activity of a compound by an in-vitro cell level was as follows.
(§2) Compounds were transferred to a 384-well plate by an ECHO liquid workstation, and each compound was diluted by 3 times with 10 gradient concentrations, which was in triplicate. 1.5×10^4 DMEM-cultured cells (TR beta-UAS-bla HEK 293T Cells) or 1.0×10^4 TR alpha-UAS-bla HEK 293T Cells were placed in the 384-well plate. HEK 293T-TR beta was incubated in an incubator for 16 hours, and HEK 293T-TR alpha was incubated in an incubator for 24 hours. A LiveBLAzer™-FRET B/G (CCF4-AM) substrate was added into the cell plate to detect expression of β-lactamase in cells, and under excitation of 409 nm, a product produced fluorescence with a wavelength of 447 nm. When the β-lactamase was not expressed, under excitation of 409 nm, fluorescence with a wavelength of 520 nm was directly produced through FRET. Combination between the compound and the protein was determined by detecting a ratio of the two kinds of fluorescence (blue/green, 460 nm/530 nm), thus calculating EC50 of the compound. […] Calculation of a factor Z (greater than 0.5) would be used for monitoring a stability of each experiment.

[2] = tested on: TR alpha-UAS-bla HEK 293T Cells; experiment: TR cell-based agonist detection, β-lactamase reporter (LiveBLAzer FRET B/G), TR alpha; conditions: Homo sapiens
Experimental: as §1, §2

[3] = tested on: golden hamsters fed with high-fat feedstuffs (hyperlipidemia model); experiment: In-vivo pharmacodynamic test, high-fat feed hyperlipidemia model; conditions: oral once per day, 4 weeks
Experimental: Administration mode: oral administration was carried out once per day with a time interval of 24 hours for 4 consecutive weeks. During the experiment, the animals were weighed twice per week, and a remaining amount and an adding amount of the feedstuffs were recorded before each blood sampling detection for calculating a food intake of each group of animals during administration.
The food utilization rate represents a weight gain in gram of an animal taking per 100 g of feedstuffs, so that food utilization rate=weight gain (g)/food intake (100 g)×100%.

## CC(C)c1cc(Oc2c(Cl)cc(-n3nc(C#N)c(=O)[nH]c3=O)cc2Cl)n[nH]c1=O [MGL3196, reference compound]
[1]; Homo sapiens, HEK-293T, 16 h, TR_cell-based agonist, TR_β, read-out: Maximum activity ratio (A460/A530)
  Emax: 37.7%
[1]; Homo sapiens, Detection of TR_cell-based agonist, HEK 293T-TR beta, 16 hours, read-out: TR_β_EC50
  EC50: 1050 nM
[1]; TR_cell-based agonist, ratio TR_α EC50 / TR_β EC50
  α/β: 2.62
[2]; HEK-293T, 24 h, TR_cell-based agonist, TR_α, read-out: Maximum activity ratio
  Emax: 134%
[2]; Detection of TR_cell-based agonist, HEK 293T-TR alpha, 24 hours, read-out: TR_α_EC50
  EC50: 2770 nM
[3]
  food utilization rate (weight gain (g)/food intake (100 g)×100%): increased to some extent
